This note sets out measurements from patent US10898436B2, “Nanoparticle compositions for generation of regulatory T cells and treatment of autoimmune diseases and other chronic inflammatory conditions” (Topas Therapeutics GmbH, priority 2011, dated 2021).

Series [1] relates to Splenic CD4+Foxp3− T cells from tg4×Foxp3gfp.KI mice. Put plainly: Treg conversion by LSEC in vitro with nanoparticle-conjugated or free MBP peptide. In kind it is cell-based. The settings on record: co-culture with LSEC, TGFβ 2 ng/ml, MBP peptide 5 ng/ml or equivalent dose, four days, flow cytometry (FIG. 11); in % (unit assumed). On the procedure:
FIG. 11: Efficient Treg conversion by LSEC in vitro using nanoparticle-conjugated MBP peptide or free MBP peptide. Splenic CD4+Foxp3− T cells from tg4×Foxp3gfp.KI mice were co-cultured with LSEC in the presence of TGFβ (2 ng/ml) and free MBP peptide (5 ng/ml) or an equivalent dose of MBP peptide coupled to nanoparticles (MBP-NP) for four days. Foxp3 induction in CD4+ T cells was then analyzed by flow cytometry. For statistical analysis, Mann-Whitney test was performed (free MBP: 32.16±1.075; MBP-NP: 29.63±1.558; P=0.2857). n.s.=not significant.
(§1) To further investigate the cellular tropism of administered peptide-nanoparticle conjugates, conventional as well as intravital confocal fluorescence microscopy of the liver was performed, using nanoparticles with a fluorescent quantum dot core (44). Prior to administration of fluorescent MBP peptide-nanoparticle conjugates, recipient mice were injected with FITC-dextran that is rapidly absorbed by LSEC. […] To confirm that delivered peptide can be presented to T cells, Treg conversion in vitro by LSEC in the presence of free MBP peptide or of MBP peptide bound to nanoparticles (MBP-NP) was studied.

A further series has as its system EAE in tg4 mice. Put plainly: Prevention of MBP-induced EAE in tg4 mice. Format: in vivo. The settings on record: single injection one day after EAE-induction, tg4 mice (FIG. 8B). The protocol:
(§2) FIG. 8: Nanoparticle-based delivery of neuroantigen peptides to LSEC prevents EAE induction. EAE was induced in B10.PL wildtype mice (A, E) or tg4 mice (B) by immunization to MBP. In C57BL/6 wildtype mice (C) or hCD2-ΔkTβRII mice (D), EAE was induced by immunization to MOG. One day after EAE induction, mice were injected once intravenously with PBS (A-E) or neuroantigen peptide-loaded nanoparticles (MBP-NP (A, B, E) or MOG-NP (C, D,). As control, mice received equivalent amounts of unloaded NP (A, C) or unconjugated MBP peptide (B,). E, Twice per week, mice treated with MBP-NP were intraperitoneally injected with Treg-depleting PC61 antibody (MBP-NP/Treg-depleted) or isotype-matched control antibody (MBP-NP). Shown are mean EAE scores±s.e.m. (n=5-7).
(§3) The proposed immunosuppressive effect of MBP-nanoparticles in vivo was first tested in MBP-induced EAE in B10.PL mice (FIG. 8A). […] To confirm the efficacy of the inventive treatment approach in another independent disease model, the effect of nanoparticles loaded with myelin oligodendrocyte glycoprotein (MOG) peptides on the development of MOG-induced EAE was tested in C57BL/6 mice.

Series [2] in a line: Organ uptake by dynamic magnetic resonance imaging. The settings on record: FIG. 7C. Format: in vivo, mice. On the procedure:
(§4) FIG. 7: Targeted delivery of MBP peptides to LSEC with nanoparticles. A) Plasma clearance rates of MBP peptide coupled to ^59Fe-NP (MBP-^59Fe-NP) and ^14C-MBP peptide coupled to unlabeled NP(^14C-MBP-NP). B) Organ distribution of MBP-^59Fe-NP and ^14C-MBP-NP 60 min after intravenous injection. Mean values±s.e.m. are shown (n=4). C) Representative coronal and transversal MR images of mice pre and post injection of unloaded NP or MBP-NP. D) Intravital confocal microscopy of the liver showing uptake of MBP-NP or unloaded NP by LSEC. Nuclei were also stained. right panel: LSEC (FITC-dextran), left panel: quantum dot-labeled NP; scale bar: 20 μm. E) Electron microscopy of liver, 60 min after intravenous injection of MBP-NP or unloaded NP.
(§5) To develop a method for selective delivery of autoantigen to LSEC in vivo, the inventors made use of nanoparticles (NP) that are rapidly cleared from the circulation through uptake by liver cells. Specifically, the inventors took advantage of a polymer-coated nanoparticle (43), which they observed to accumulate selectively in liver sinusoidal endothelium (data not shown). […] Low amounts of radioactivity could be detected in spleen and kidney, whereas uptake into other organs was negligible. […]

The test system of series [3] is MBP-induced EAE in B10.PL mice. Kind of series: MBP-induced EAE in B10.PL mice with Treg depletion by PC61 antibody. In kind it is in vivo. On the procedure:
as §2
FIG. 13: Depletion of CD25+Foxp3+CD4+ Treg in vivo by repeated PC61 antibody-administration. B10.PL mice were immunized to MBP peptide and treated on the next day with PBS (n=7) or MBP peptide-coupled nanoparticles (MBP-NP). Mice, which received MBP-NP, were then either treated twice per week with Treg-depleting PC61 antibody (n=5) or non-depleting isotype-matched control antibody (n=6). Mice were sacrificed on day 29 post immunization and spleens were analyzed for Treg depletion efficiency by flow cytometry. Results are depicted as mean % of CD25+Foxp3+of CD4+ T cells±s.e.m. (PBS 17.16±0.3422; MBP-NP+isotype 15.08±0.8594; MBP-NP+PC61 3.160±0.4643; P<0.001). For comparison of multiple groups, one-way ANOVA and Tukey's post test were performed.
As the inventors have shown above that tolerance induction by LSEC required TGFβ signaling to T cells, they reasoned that nanoparticle-based targeting of autoantigen peptides to LSEC should be ineffective in mice with TGFβ-insensitive T cells. […] Thus, it can be concluded that also in vivo, the efficacy of nanoparticle-mediated tolerance induction is dependent on TGFβ signaling to T cells. […]

Series [4] is described as follows: Zeta potential measurement (Malvern Zetasizer Nano-ZS). In kind it is physicochemical. The settings on record: 20° C. On the procedure: FIG. 12: Characteristics of NP and MBP-NP. A) The Zeta potentials of NP and MBP-NP were measured at 20° C. using a Malvern Zetasizer Nano-ZS instrument. […] No differences in size could be detected by B) size exclusion chromatography (MBP-NP: left line; NP: right line) or C) by transmission electron microscopy. For electron microscopy, samples were stained with 1% sodium silicotungstate, pH 7, so that the organic shell appears light and the iron oxide core dark.

The test system of series [5] is MBP-induced EAE in B10.PL mice. Kind of series: Prevention of MBP-induced EAE in B10.PL mice. The following applies: single intravenous injection one day after EAE-induction, B10.PL mice (FIG. 8A). Format: in vivo. On the procedure: as §2, §3
For the next series, the system named is LSEC. Kind of series: Cellular tropism of peptide-nanoparticle conjugates in liver (intravital confocal microscopy, electron microscopy). In kind it is in vivo, mice. The protocol:
as §4, §1

The test system of series [6] is experimental autoimmune encephalomyelitis (EAE) in B10.PL mice. Put plainly: Treatment of EAE with autoantigen-loaded nanoparticles (Example 4). In kind it is in vivo. The following applies: injected into B10.PL mice one day after EAE induction by Ac1-9 MBP peptide (FIG. 5). On the procedure:
For covalent conjugation of neuroantigen peptide (encephalitogenic Ac1-9 peptide derived from the amino acid sequence of myelin basic protein), iron oxide-core nanoparticles were synthesized as described in example 3 and adjusted to a concentration of 6 μmol/L in 50 mM SBB-buffer (pH=9). An equal amount of 1-Ethyl-3-(3-dimethylaminopropyl)carbodiimide (c=[…]), dissolved in a 50 mM SBB-buffer (pH=9), was added. After 5 minutes, a 1000-fold excess of the neuroantigen peptide was added and the solution was incubated under rotation for 2h at room temperature and then overnight at 4° C. On the next day, the solution was filtered under centrifugal force in a filter device (100 kDa, 2500 g, 4° C.) and the remnant resuspended in PBS. This procedure was repeated 20 times to remove all excess peptide. The obtained peptide-particle conjugates were dissolved in PBS and subjected to size-exclusion-chromatography to assure for the absence of free peptide. Then, the iron content was measured to determine the concentration of the peptide-particle suspension.
Results: The thus obtained peptide-loaded nanoparticles or, as control, unconjugated peptide-free nanoparticles were then injected into B10.PL mice (n=6), one day after induction of experimental autoimmune encephalomyelitis (EAE) by immunization to Ac1-9 myelin basic protein peptide (25).

On the set-up of series [7]: species or system mice. The following applies: mouse, in vivo, iv. On the procedure:
as §4, §5

The subject of the next series is CD4+CD25− T cells. Kind of series: Generation of Treg cells from CD4+CD25− non-regulatory T cells by antigen presenting cells. Format: cell-based, mouse. The protocol:
Mouse liver non-parenchymal cells were isolated applying a protocol modified from (28). Briefly, mouse livers were perfused with 0.05% collagenase IV (Sigma; Taufkirchen, Germany) in Gey's balanced salt solution, mechanically dissected and further digested in 0.05% collagenase IV in Gey's balanced salt solution for 25 minutes at 37° C. at constant rotation (240 rpm). Hepatocytes and debris were sedimented twice at 40 g and non-parenchymal cells were recovered by centrifugation over a 17% Optiprep (Sigma) gradient at 400 g.
Liver sinusoidal endothelial cells (LSEC) were purified from the non-parenchymal cells as described (29) by magnetic sorting with the ME-9F1 antibody (Miltenyi Biotech, Bergisch-Gladbach, Germany). LSEC were seeded on collagen-coated culture plates (Serva, Heidelberg, Germany). After overnight culture in Iscove's modified Dulbecco's medium supplemented with 5% FCS, non-adherent cells were removed by medium change. Accordingly, Kupffer cells were purified from the non-parenchymal cells by magnetic sorting with biotinylated F4/80 antibody (eBioscience, Frankfurt, Germany) and anti-biotin microbeads (Miltenyi).
Alternatively, hepatocytes were isolated from mouse livers as described (30); and dendritic cells were isolated from mouse spleen by magnetic cell separation for CD11c as described (30).
10^5 LSEC, 10^5 Kupffer cells, or 5×10^3 hepatocytes were seeded into 96-well plates, and used on the following day for stimulation of CD4+CD25− T cells. Alternatively, 5×10^4 dendritic cells, were seeded into 96-well plates, and used on the same day for stimulation of CD4+CD25− T cells. These CD4+CD25− non-regulatory T cells were isolated from mouse spleens by magnetic cell separation, and 5×10^5 purified lymphocytes per well were then stimulated on the indicated antigen presenting cells in serum-free medium (Pan Biotech, Aidenbach, Germany) with solute antibody to CD3 (BD Bioscience, Heidelberg, Germany). After four days of culture, the T cells were harvested and analysed by flow cytometry for the percentage of CD4+CD25+FOXP3+ Treg cells. […]

No end group written: not given here.

As for “MBP-NP: Ac1-9 myelin basic protein peptide covalently conjugated by carbodiimide to polymer-coated iron oxide-core nanoparticles (Ac-MGNHSGKRE; also: carbodiimide-conjugated to polymer-coated iron oxide nanoparticles; UniProt P04370 1-9, looked up, fragment)”, the “Foxp3 induction in CD4+ T cells” value in series [1] is listed as 29.63±1.558. In addition, the “clinical EAE” value is “protected from disease” with EAE in tg4 mice; “lasting and almost complete protection from clinical EAE” in series [5]. Moreover, the “organ uptake by dynamic magnetic resonance imaging” value in series [2] is on record as “only hepatic targeting”. Further, the “protection from EAE” value was “could not prevent the development of disease” in [3] (Treg-depleted mice (repeated PC61 antibody) (FIG. 8E)) and “induced protection from EAE” in [3] (control mice (isotype-matched control antibody) (FIG. 8E)). Further, in series [3] (spleens, day 29 post immunization, flow cytometry, B10.PL mice (FIG. 13)), the “mean % of CD25+Foxp3+of CD4+ T cells±s.e.m.” value stood at 15.08±0.8594%. Further, the “averaged Zeta-potential” value in series [4] is recorded as −61.6 mV. For the same substance, the “uptake by LSEC by transmission electron microscopy” value in the series with LSEC (60 min after intravenous injection (FIG. 7E)) is reported as “sizeable internalization”. Moreover, the “localisation in liver by intravital confocal fluorescence microscopy” value in the series with LSEC (quantum dot core, intravenous injection, FITC-dextran stained LSEC (FIG. 7D)) was “co-localized with FITC-dextran stained LSEC”. In addition, the “protection from clinical EAE” value in series [6] is “complete protection from clinical EAE”.
As to “MBP-^59Fe-NP: 59Fe-radiolabeled nanoparticles conjugated to non-labeled MBP peptide (MGNHSGKRE; also: conjugated to 59Fe-labelled nanoparticles; UniProt P04370 1-9, looked up, fragment)”, the “plasma clearance kinetics of radiolabel” value in series [7] is recorded as “cleared with similar kinetics”.
Take “TGFβ: exogenous cytokine added to some stimulation cultures”: the “percentage of CD4+CD25+FOXP3+ Treg cells among stimulated T cells” value in the series with CD4+CD25− T cells (LSEC-stimulated T cells, in the presence of TGFβ, four days of culture) is 38%; in the series with CD4+CD25− T cells (dendritic cell-stimulated T cells, in the presence of exogenous TGFβ, four days of culture), 7.5%; in the series with CD4+CD25− T cells (liver cell-stimulated T cells (LSEC, Kupffer cells and hepatocytes), in the presence of exogenous TGFβ), “at least 20%”.
On to “^14C-MBP-NP: 14C-radiolabeled MBP peptide coupled to unlabeled NP (MGNHSGKRE; also: 14C label, nanoparticle conjugate; UniProt P04370 1-9, looked up, fragment)”, for which the “plasma clearance kinetics of radiolabel” value in [7] is recorded as “cleared with similar kinetics”.
As to “free MBP peptide: encephalitogenic Ac1-9 peptide derived from the amino acid sequence of myelin basic protein, not coupled (Ac-MGNHSGKRE; UniProt P04370 1-9, looked up, fragment) [reference compound]”, the “Foxp3 induction in CD4+ T cells” value in series [1] is 32.16±1.075. Also, in the series with EAE in tg4 mice, the “clinical EAE” value is on record as “developed severe EAE”.
